Test [1] deals with PC12 cells differentiated by NGF. Put plainly: Neurite retraction in NGF-differentiated PC12 cells caused by anticancer agents. In kind it is cell-based, rat. To be noted: 24 hours; for neurite retraction caused by oxaliplatin: oxaliplatin 20 μM. The procedure:
Rat adrenal gland pheochromocytoma-derived PC12 cells are known to be differentiated into neuron-like cells having neurites by nerve growth factor (NGF) and are widely used as a nerve cell model. To assess the neurite-protective action of PC-SOD, the effect of PC-SOD in neurite disorder caused by various anticancer agents was analyzed by using PC12 cells differentiated by NGF.
PC12 cells were seeded on a 24-well plate coated with collagen at 5 000 cells/well. […] The images of cells were captured by using a microscope (BZ-X800, Keyence Corporation), and the neurite lengths were measured by using an image analysis software ImageJ (NIH).
PC12 cells were seeded on a 24-well plate coated with collagen at 5 000 cells/well. […] After neurite elongation, cells were cultured by using differentiation media each containing carboplatin (with a final concentration of 50 μM) alone or carboplatin and PC-SOD (with final concentrations of 10, 20, 50, and 100 μg/mL) for 24 hours. The images of cells were captured by using a microscope (BZ-X800, Keyence Corporation), and the neurite lengths were measured by using an image analysis software ImageJ (NIH).
PC12 cells were seeded on a 24-well plate coated with collagen at 5 000 cells/well. […] After neurite elongation, cells were cultured by using differentiation media each containing paclitaxel (abbreviated as PTX in the figure of results) alone (with a final concentration of 0.1 μM) or paclitaxel and PC-SOD (with final concentrations of 10, 50, and 100 μg/mL) for 24 hours. The images of cells were captured by using a microscope (BZ-X800, Keyence Corporation), and the neurite lengths were measured by using an image analysis software ImageJ (NIH).

Test [2] deals with kidney of CIS-treated rats. Put plainly: Assessment of kidney disorder caused by cisplatin in rats. In kind it is in vivo, rat. The settings on record: CIS 3 mg/kg i.p. 8 doses. The procedure:
(§1) Six to eight-week-old male SD rats (from 200 to 400 g) were used. […] A total of eight doses were given with a regimen of twice weekly for four weeks (Days 1, 2, 7, 8, 13, 14, 19, and 20). A solvent for CIS, i.e., physiological saline, was similarly administered to a control group. […] Laboratory animals were divided into three groups: a control group, a CIS administration group, and a group receiving administration of CIS and PC-SOD 1 mg/kg (CIS+PC-SOD administration group) (n=6 per group).
For an experiment of prevention, PC-SOD was administered into the caudal vein from five to 15 minutes after CIS administration in the CIS+PC-SOD administration group. A total of eight doses were given with a regimen of twice weekly for four weeks (Days 1, 2, 7, 8, 13, 14, 19, and 20). A solvent for PC-SOD was similarly administered to the control group and the CIS administration group. The rat kidney weight was measured, and changes in the kidney weight were corrected with body weight. Further, a photograph of the kidney was taken to check changes in size and morphology of the kidney (Scale bar=10 mm).
For pathological analysis, a split was put in the sagittal plane of the collected kidney, and the kidney was fixed with 10% formalin to prepare a paraffin block by using Histos 5 (Milestone) and an embedding center (EG1160, Leica). The sample block was thinly sliced by using a microtome (MR2245, Leica) at a thickness of 3 μm to prepare a slide. The prepared slide was subjected to Periodic acid-Schiff (PAS) staining for assessment of clinical condition and Picrosirius Red staining for assessment of fibrosis. A fibrosis marker α-SMA was stained by an immunostaining method. […] Observation and assessment were performed by observing the whole section. Four to nine images of tissue on the cortical side on which the disorder was induced were randomly taken up, and inflammation, tubular necrosis, protein agglutination in renal tubules, vacuolation, and necrosis were assessed for changes in clinical condition. […] (Scale bar=500 μm (FIG. 11-1), Scale bar=200 μm (FIGS. 11-2 and 11-3)).

For test [3], the system named is RAW cells. Put plainly: Active oxygen production in RAW cells (MitoSOX Red). In kind it is cell-based. To be noted: gemcitabine, oxaliplatin, cisplatin or carboplatin with simultaneous PC-SOD, 16 hours; FIG. 13-2. On the procedure: RAW cells were seeded on a 96-well plate for fluorescence at 20 000 cells/well (D-MEM high glucose medium containing 10% inactivated FBS). […] Sixteen hours later, cells were treated with an HBSS solution containing dissolved MitoSOX™ Red Mitochondrial Superoxide Indicator (Invitrogen™) for 30 minutes, and the medium was replaced with D-MEM high glucose medium containing 1% inactivated FBS. Active oxygen production in mitochondria was determined by measuring fluorescence (Ex 510 nm, Em 580 nm) by using a plate reader (Infinite M Plex, Tecan). Cells for four wells were analyzed for each group.

The subject of test [4] is peripheral blood cells of CIS-treated rats. Put plainly: Assessment of myelosuppression caused by cisplatin (peripheral blood cell count). The format is in vivo, rat. To be noted: CIS 3 mg/kg i.p. 8 doses, PC-SOD 1 mg/kg caudal vein, FIG. 14. The procedure: as §1, with “group). For an experiment of prevention, PC-SOD was administered into the caudal vein from five to 15 minutes after CIS administration in the CIS+PC-SOD administration group. A total of eight doses were given with a regimen of twice weekly for four weeks, (Days 1, 2, 7, 8, 13, 14, 19, and 20). A solvent for PC-SOD was similarly administered to the control group and the CIS administration group. Peripheral blood was collected from the rat caudal vein three days later, and peripheral blood was analyzed by using an automated blood cell counter (MEK-6458, Nihon Kohden Corporation).” for “group).”

On to “lecithinized superoxide dismutase [PC-SOD]”, for which the “neurite retraction caused by carboplatin” value in test [1] (carboplatin 50 μM, PC-SOD 10, 20, 50, 100 μg/mL, FIG. 7-2) is given as “suppressed by simultaneous addition of PC-SOD dependently on the PC-SOD concentration”. The “neurite retraction caused by cisplatin” value in test [1] (cisplatin 33 μM, PC-SOD 10, 50, 100 μg/mL, FIG. 7-1) is on record as “significantly suppressed as compared with addition of cisplatin alone”. In test [1] (PC-SOD 10, 50, 100 μg/mL, FIG. 7-1), the “neurite retraction caused by oxaliplatin” value was “markedly suppressed by simultaneous addition of PC-SOD dependently on the PC-SOD concentration”. The “neurite retraction caused by oxaliplatin” value in test [1] (test substance 50 μg/mL, FIG. 8) is “suppressed almost completely”. For the same substance, the “neurite retraction caused by paclitaxel” value in test [1] (paclitaxel 0.1 μM, PC-SOD 10, 50, 100 μg/mL, FIG. 7-3) is “suppressed by simultaneous addition of PC-SOD dependently on the PC-SOD concentration”. Further, in test [2] (PC-SOD 1 mg/kg caudal vein, FIG. 10-1, 10-2), the “increase in kidney weight and swelling of the kidney caused by CIS” value is “the suppressive effect on an increase in the kidney weight and swelling of the kidney caused by CIS was confirmed”. In addition, the “pathological damage to the kidney caused by CIS (PAS staining)” value in test [2] (PC-SOD 1 mg/kg, FIG. 11-1) is recorded as “a suppressive effect on pathological damage to the kidney caused by CIS was observed”. For the same substance, the “renal fibrosis caused by CIS (Picrosirius Red and α-SMA staining)” value in test [2] (PC-SOD 1 mg/kg, FIG. 11-2, 11-3) is “decreases of fibrosis-positive regions in the kidney caused by CIS were detected”. Also, the “anticancer agent-dependent production of active oxygen in RAW cells” value in test [3] is on record as “significantly suppressed the anticancer agent-dependent production of active oxygen dependently on the concentration of PC-SOD”. Further, in test [4], the “decrease in platelets (PLTs) caused by CIS” value was “decreases in WBCs and PLTs were suppressed”; the “decrease in white blood cells (WBCs) caused by CIS” value is “decreases in WBCs and PLTs were suppressed”.

For the origin of these results see US20240261375A1, “PHARMACEUTICAL COMPOSITION FOR TREATING OR PREVENTING DISORDER ASSOCIATED WITH ADMINISTRATION OF ANTICANCER AGENT” (LTT BIO-PHARMA CO., LTD., priority 2021, published 2024).
